The nature of one data set: Stability in serum. Type of data set: in vitro ADME. The settings on record: 37° C., completely stable. The source says:
As an approach to identifying such stable analogs, various derivatives of (S)-3-(undec-10-enoyl)-aminoglutarimide have been tested for their stability in serum.

Data set [1] has as its system chemokine-induced migration. To be noted: versus (S)-3-(undec-10-enoyl)-aminoglutarimide; cited from earlier work.
For data set [2], the system named is MCP-1 induced leukocyte migration (THP-1 cells). In words: Inhibition of MCP-1 induced leukocyte migration (96-well transwell assay, THP-1 cells). The format is cell-based. To be noted: Homo sapiens, MCP-1 25 ng/ml, 2 hours at 37° C., read-out: ED50 (concentration of compound required to reduce the MCP-1-induced migration by 50%). The protocol:
In principle, this assay consists of two chambers separated by a porous membrane. The chemoattractant is placed in the lower compartment and the cells are placed in the upper compartment. After incubation for a period at 37° C. the cells move towards the chemoattractant, and the number of cells in the lower compartment is proportional to the chemoattractant activity (relative to a series of controls).
The THP-1 cell line (European Cell culture Collection) were used as the leukocyte cell population.
The following procedure is used for testing the invention compounds for MCP-1 induced leukocyte migration:
First, the cell suspension to be placed in the upper compartment is prepared. The THP-1 cells are pelleted by centrifugation (770×g; 4 mins) and washed with Geys Balanced Salt Solution with 1 mg/ml BSA (GBSS+BSA). This wash is then repeated, and the cells repelleted before being resuspended in a small volume of GBSS+BSA for counting, for example using a standard haemocytometer.
The volume of GBSS+BSA is then adjusted depending on the number of cells present so that the cells are at final density of 4.45×10^6 cells per ml of GBSS+BSA. This ensures that there are […] THP-1 cells in each 25 μl of the solution that will be placed in the upper chamber of the plate.
To test a single compound for its ability to inhibit MCP-1 induced migration, it is necessary to prepare two lots of cells. The suspension of THP-1 cells at 4.45×10^6 cells/ml is divided into two pots. To one pot the inhibitor under test is added at an appropriate final concentration, in an appropriate vehicle (for example at 1 μM in not more than 1% DMSO). To the second pot an equal volume of GBSS+BSA plus vehicle as appropriate (e.g. not more than 1% DMSO) is added to act as a control.
Next, the chemoattractant solution to be placed in the lower compartment is prepared. MCP-1 is diluted in GBSS+BSA to give a final concentration of 25 ng/ml. This is divided into two pots, as for the cell suspension. To one pot, the test compound is added to the same final concentration as was added to the cell suspension, while to the other pot an equal volume of GBSS+BSA plus vehicle as appropriate (e.g. not more than 1% DMSO) is added.
Note that the volume of liquid that needs to be added to make the addition of the text compound needs to be taken into account, when establishing the final concentration of MCP-1 in the solution for the lower compartment and the final concentration of cells in the upper compartment.
Once the chemoattractant solutions for the lower wells and cell solutions for the upper chambers have been prepared, the migration chamber should be assembled. Place 29 μl of the appropriate chemoattractant solution into the lower well of the chamber. Assays should be performed with at least triplicate determinations of each condition. Once all the lower chambers have been filled, apply the prous membrane to the chamber in accordance with the manufacturer's instructions. Finally, apply 25 μl of the appropriate cell solution to each upper chamber. A plastic lid is placed over the entire apparatus to prevent evaporation.
The assembled chamber is incubated at 37° C., 5% CO2, for 2 hours. A suspension of cells in GBSS+BSA is also incubated under identical conditions in a tube: these cells will be used to construct a standard curve for determining the number of cells that have migrated to the lower chamber under each condition. […]

The conditions of data set [3]: cited from earlier work.

Bridges are numbered along the chain shown (N, C = ends). Where no end group is shown, it is not given here. [ ]: non-standard residue; d: D form.

Turning to `C=CCCCCCCCCC(=O)[C@@H]1CCCNC1=O` [(S)-3-(undec-10-enoyl)-tetrahydropyridin-2-one], the “stability in human serum” value in “Stability in serum” is on record as “at least 7 days”. Moreover, the “potency compared with the parental molecule” value in data set [1] was “considerably reduced potency”. `CCCCCCCCCCC(C)(C)C(=O)N[C@H]1CCCNC1=O` [Example 3, (S)-3-(2′,2′-Dimethyldodecanoylamino)-tetrahydropyridin-2-one]: the EC50 in data set [2] was at most 100 nM. With `CCCCCCCCCCC(C)(C)C(=O)N[C@H]1CCNC1=O` [Example 4, (S)-3-(2′,2′-Dimethyldodecanoylamino)-pyrrolidin-2-one], the EC50 in data set [2] is at most 100 nM.

Take `CC1(C(=O)N[C@H]2CCCNC2=O)CCCCC1` [Example 5, (S)-3-(1′-Methylcyclohexanecarbonyl)amino-tetrahydropyridin-2-one]: the EC50 in data set [2] is at most 100 nM. Still for that read-out and setting: then `CC1(C(=O)N[C@H]2CCNC2=O)CCCCC1` [Example 6, (S)-3-(1′-Methylcyclohexanecarbonyl)amino-pyrrolidin-2-one], with at most 100 nM; and `O=C1NCCC[C@@H]1NC(=O)C1(c2ccccc2)CCCCC1` [Example 7, (S)-3-(1′-Phenylcyclohexanecarbonyl)amino-tetrahydropyridin-2-one], with at most 100 nM. Turning to “c(DCys-DGln-DIle-DTrp-DLys-DGln-DLys-DPro-DAsp-DLeu-DCys)-NH2 ([dC][dQ][dI][dW][dK][dQ][dK][dP][dD][dL][dC]-NH2; disulfide 1-11 (inferred)) [NR58-3.14.3]”, the “half-life period of clearance from blood plasma” value in data set [3] (after intravenous injection) is on record as “less than 30 minutes”. For the same compound, in data set [3] (in vivo, po), the oral bioavailability result is reported as “not orally bioavailable”.

(Values after US20090203739A1, “Anti-Inflammatory Agents” (priority 2005, published 2009).)
